Reference: patent US7517870B2, “Use of compounds that interfere with the hedgehog signaling pathway for the manufacture of a medicament for preventing, inhibiting, and/or reversing ocular diseases related with ocular neovascularization” (Fondazione Telethon, priority 2004, dated 2009)

Tests used:
[1] = tested on: retinal (ocular) neovascularization; assay: Angiography after fluorescein-dextran perfusion in mouse model of Retinopathy of Prematurity (ROP); assay type: in vivo, C57/BL6 mice; details: ROP mice
Excerpt: To determine whether inhibition of the Shh signaling pathway by administration of an siRNA targeting Shh is able to reduce retinal (ocular) neovascularization, siRNA targeting Shh is administrated to a mouse model of Retinopathy of Prematurity (ROP).
C57/BL6 mice are used in this study. Mice from postnatal day 7 (P7) to P12 are exposed to hyperoxia (25% nitrogen, 75% oxygen). At P12 mice return to room air until P17. The group of five mice treated with siRNA targeting Shh receive a daily subretinal injection (1 μl) of 100 mg/ml siRNA targeting Shh dissolved in Phosphate-Buffered Saline (PBS) from P12 to P17, controls receive the vehicle alone.

[2] = tested on: VEGF protein expression in 293 cells; details: HEK-293 cells, desferroxamine 100 μM, Cyclopamine 10 μM, 24 hours
Protocol: Five μl of 95% ethanol was added to untreated control.
Twenty-four hours after induction of hypoxia the supernatant of the 293 cells was removed from wells and a human VEGF ELISA (R & D Systems, Minneapolis, Minn.) was performed on the cell supernatants (FIG. 4) as described in the Quantikine human VEGF ELISA protocol using a dilution of
the medium of 1:10. ELISA results were read on a Bio-Rad Reader 550 ELISA plate reader (Bio-Rad Laboratories, Inc, CA).

Hh-dependent tumors = details: mice that carry Hh-dependent tumors; cited from earlier work
[3] = daily subretinal injection (1 μl) of 100 mg/ml siRNA in PBS from P12 to P17, angiography on P17, vs vehicle control eyes

siRNA targeting Shh: siRNA duplex, SEQ ID NO:16 (sense strand) and SEQ ID NO:15 (antisense strand) (sense AAUUACAACCCCGACAUCAUAUU; antisense UAUGAUGUCGGGGUUGUAAUUUU; listed as RNA, chemistry not given here)
inhibition of ocular neovascularization (neovascular tufts and vessel leakage) [1, 3]: Robust inhibition of ocular neovascularization

siRNA targeting Gli1: siRNA duplex, SEQ ID NO:19 (sense strand) and SEQ ID NO:20 (antisense strand) (sense ACGCCGCAGCAGCAGCUCCUU; antisense GGAGCUGCUGCUGCGGCGUUU; listed as RNA, chemistry not given here)
inhibition of ocular neovascularization (neovascular tufts and vessel leakage) [1, 3]: Robust inhibition of ocular neovascularization

CC1=C2C[C@H]3[C@@H](CC=C4C[C@@H](O)CC[C@@]43C)[C@@H]2CC[C@]12O[C@@H]1C[C@H](C)CN[C@H]1[C@H]2C [cyclopamine]
inhibition of ocular neovascularization (neovascular tufts and vessel leakage) ([1]; daily subcutaneous injection of 50 mg/kg from P12 to P17, angiography on P17, vs vehicle control eyes): Robust inhibition of ocular neovascularization | inhibition of hypoxia-induced VEGF expression [2]: Able to Inhibit Hypoxia-Induced VEGF Expression | effect on Hh-dependent tumors (Hh-dependent tumors): growth inhibition and regression of cancerous tissue | health of treated animals (Hh-dependent tumors): does not affect the health of treated animals

siRNA targeting Smoothened: siRNA duplex, SEQ ID NO:17 (sense strand) and SEQ ID NO:18 (antisense strand) (sense AAGGCCUUCUCUAAGCGGCAUU; antisense UGCCGCUUAGAGAAGGCCUUUU; listed as RNA, chemistry not given here)
inhibition of ocular neovascularization (neovascular tufts and vessel leakage) [1, 3]: Robust inhibition of ocular neovascularization

B1: soluble Hip1: secreted form of Hedgehog interacting protein 1 lacking the transmembrane domain (SEQ ID NO:6), produced in 293 cells (protein, listed as Mus musculus)
chain: MLKMLSFKLLLLAVALGFFEGDAKFGERNEGSGARRRRCLNGNPPKRLKRRDRRVMSQLELLSGGEILCGGFYPRVSCCLQSDSPGLGRLENKIFSATNNSECSRLLEEIQCAPCSPHSQSLFYTPERDVLDGDLALPLLCKDYCKEFFYTCRGHIPGLLQTTADEFCFYYARKDAGLCFPDFPRKQVRGPASNYLGQMEDYEKVGGISRKHKHNCLCVQEVMSGLRQPVSAVHSGDGSHRLFILEKEGYVKILTPEGELFKEPYLDIHKLVQSGIKGGDERGLLSLAFHPNYKKNGKLYVSYTTNQERWAIGPHDHILRVVEYTVSRKNPHQVDVRTARVFLEVAELHRKHLGGQLLFGPDGFLYIILGDGMITLDDMEEMDGLSDFTGSVLRLDVDTDMCNVPYSIPRSNPHFNSTNQPPEVFAHGLHDPGRCAVDRHPTDININLTILCSDSNGKNRSSARILQIIKGRGYESEPSLLEFKPFSNGPLVGGFVYRGCQSERLYGSYVFGDRNGNFLTLQQSPVTKQWQEKPLCLGASSSCRGYFSGHILGFGEDELGEVYILSSSKSMTQTHNGKLYKIVDPKRPLMPEECRVTVQPAQPLTSDCSRLCRNGYYTPTGKCCCSPGWEGDFCRIAKCEPACRHGGVCVRPNKCLCKKGYLGPQCEQVDRNVRRVTR
inhibition of ocular neovascularization (neovascular tufts and vessel leakage) ([1]; daily subretinal injection of 50 mg/kg in PBS from P12 to P17, angiography on P17, vs vehicle control eyes): Robust inhibition of ocular neovascularization
